{
  "source": "patent US20170050966A1",
  "about": "“INHIBITING THE TRANSIENT RECEPTOR POTENTIAL A1 ION CHANNEL” (HYDRA BIOSCIENCES, INC., priority 2014, published 2017)",
  "key": {"[1]": {"test": "Solubility in simulated gastrointestinal fluid (SGF)", "assay_type": "physicochemical", "settings": "simulated gastric fluid, thermodynamic from solid, HCl 0.1N at 25° C.", "experimental": "Solubility was further assessed in simulated gastrointestinal fluid (SGF) (HCl 0.1N at 25° C.). Briefly, compound was agitated for 30 hours and sampled, centrifuged, and analyzed by UPLC."}, "dogTRPA1": {"molecular_target": "dogTRPA1 (Canis lupus familiaris, UniProt A0A8I3Q1Q7)", "sequence (A0A8I3Q1Q7 1-1118)": "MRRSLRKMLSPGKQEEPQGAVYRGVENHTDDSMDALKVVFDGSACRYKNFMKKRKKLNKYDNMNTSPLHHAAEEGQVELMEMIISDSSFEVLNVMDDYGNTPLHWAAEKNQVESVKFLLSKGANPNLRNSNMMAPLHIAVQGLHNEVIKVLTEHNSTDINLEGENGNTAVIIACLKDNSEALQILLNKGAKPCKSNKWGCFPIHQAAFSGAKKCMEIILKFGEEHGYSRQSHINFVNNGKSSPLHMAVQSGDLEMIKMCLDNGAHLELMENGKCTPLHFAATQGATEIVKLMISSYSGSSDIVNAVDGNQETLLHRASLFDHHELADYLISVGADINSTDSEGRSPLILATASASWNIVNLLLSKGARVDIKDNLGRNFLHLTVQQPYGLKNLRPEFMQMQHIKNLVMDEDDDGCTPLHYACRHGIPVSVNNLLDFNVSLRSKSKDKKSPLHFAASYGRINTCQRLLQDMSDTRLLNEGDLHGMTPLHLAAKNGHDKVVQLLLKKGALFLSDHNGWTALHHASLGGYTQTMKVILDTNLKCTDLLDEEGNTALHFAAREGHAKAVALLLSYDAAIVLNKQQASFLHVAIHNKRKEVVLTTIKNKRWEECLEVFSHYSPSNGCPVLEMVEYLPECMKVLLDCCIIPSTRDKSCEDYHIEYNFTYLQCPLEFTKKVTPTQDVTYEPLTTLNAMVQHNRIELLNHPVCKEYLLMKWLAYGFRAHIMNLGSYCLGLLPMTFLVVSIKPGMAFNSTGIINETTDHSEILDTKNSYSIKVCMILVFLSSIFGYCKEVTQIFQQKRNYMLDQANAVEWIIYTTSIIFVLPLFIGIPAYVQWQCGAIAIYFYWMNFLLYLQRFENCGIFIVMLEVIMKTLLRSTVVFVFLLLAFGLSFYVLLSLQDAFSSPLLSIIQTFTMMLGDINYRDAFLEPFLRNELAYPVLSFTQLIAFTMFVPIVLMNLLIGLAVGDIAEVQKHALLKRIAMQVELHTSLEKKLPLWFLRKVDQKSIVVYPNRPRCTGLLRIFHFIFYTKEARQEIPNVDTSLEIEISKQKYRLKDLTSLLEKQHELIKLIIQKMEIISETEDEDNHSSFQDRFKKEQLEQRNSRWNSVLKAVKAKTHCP", "test": "TRPA1 IC50, whole-cell patch clamp", "assay_type": "cell-based, Dog", "settings": "dogTRPA1, 10 μM AITC; read-out: IC50 Inward current", "from_the_text": "The change in IC50 block in the presence of albumin and plasma was also studied. It is assumed that the pharmacological effect of a drug correlates to unbound plasma levels, which is known as the “free drug hypothesis”. The aim of this study was to estimate the change in IC50 for block of human TRPA1 (hTRPA1) by Compound 2 in the presence of physiologically relevant concentrations of albumin and plasma (see Table 7). The human form of TRPA1 was used to assess protein binding in all species due to technical issues. The whole-cell patch clamp technique as described in del Camino, D. et al. J Neurosci 74 (2010) 30:15165 was employed to measure current through hTRPA1 upon activation by allyl isothiocyanate (AITC), the active ingredient in mustard oil, in the presence of 1% (w/v) serum albumin or 25% (v/v) plasma from various species including human plasma (hPlasma), human serum albumin (HSA), rat plasma (rPlasma), rat serum albumin (RSA), dog plasma, and sheep serum albumin (sheepSA). […]\nData for TRPA1 inhibition was obtained by this method for the indicated compounds of Formula (I), with the relevant data included in Table 14 below. All currents were recorded in whole-cell configuration using EPC-9 and EPC-10 amplifiers and Patchmaster software (HEKA). […]"}, "[2]": {"system": "allergic sheep challenged with Ascaris suum", "test": "Sheep model of allergic bronchoconstriction and airway hyperresponsiveness", "assay_type": "in vivo", "experimental": "Compound 2 was also tested in the sheep model of allergic bronchoconstriction and airway hyperresponsiveness according to the methods disclosed in Abraham, W. M Palm Pharmacol Ther (2008) 21:743-754. Allergic sheep challenged with Ascaris suum show a substantial, biphasic increase in pulmonary resistance (RL). The first four hours are considered the early asthmatic response (EAR); the next four hours (hours 4-8) are considered to be the late asthmatic response (LAR). To assess airway responsiveness (AHR), the cumulative carbachol dose in breath units that increased pulmonary resistance 400% over the post-buffer value (PC 400) was calculated from the dose response curve. One breath unit was defined as one breath of a 1% w/v carbachol solution. A pre-challenge PC 400 was obtained 1-3 days before the start of dosing.\nCompound 2 was formulated as a micronized powder suspended in 0.5% methylcellulose at a concentration of 6 mg/ml and administered orally at a dose of 30 mg/kg once a day for 4 days, at the same approximate time each day. Sheep were given 30 mg/kg Compound 2 orally daily four days. Two hours after the final dose of Compound 2, the sheep were subjected to an allergen (Ascaris) challenge. Each sheep was restrained in a prone position and its head was immobilized prior to topical anesthesia of the nasal passages. A balloon catheter was advanced through one nostril into the lower esophagus. Each sheep was intubated with a cuffed endotracheal tube through the other nostril. Tracheal and pleural pressures were determined using the endotracheal tube and balloon catheter, respectively. The trans-pulmonary pressure, i.e., the difference between the tracheal and pleural pressures, was measured using a differential pressure transducer catheter system. RL was determined by connecting the distal end of the endotracheal tube to a pneumotachograph. Data were collected from five to ten breaths to a computer and used to calculate RL. Data from the same sheep challenged with Ascaris prior to the initiation of Compound 2 treatment were used to establish baseline values. Monitoring conditions for the control and drug trials were identical.\nOn the day of challenge and two hours after the final dose of Compound 2, an aerosol of Ascaris suum (82,000 protein nitrogen units/mL) was generated using a nebulizer and delivered to the sheep using a Harvard respirator. RL was determined one hour prior to challenge, immediately following Ascaris challenge, and hourly thereafter for eight hours. Challenge to 4 hours is considered the EAR while 4 to 8 hours is considered the LAR.\nSheep were also challenged with aerosolized carbachol, a cholinergic agonist that has a negative impact on AHR. […]"}, "cynomolgus monkeys": {"system": "cynomolgus monkeys", "test": "Hepatotoxicity safety profile, serum biomarkers", "assay_type": "in vivo", "settings": "for ALP d28 / ALT d28 / AST d28 / GGT d28: day 28", "experimental": "Compound 2 in the vehicle (0.5% methylcellulose, 400 cps) was administered via nasogastric intubation once daily for 28 or 29 consecutive days to 4 groups of cynomolgus monkeys. Each group received one dose level. Dosage levels were 10, 30, 100, and 300 mg/kg/day per group. […] The dosage volume was 10 ml/kg for all groups. Hepatoxicity was measured via the serum biomarkers of alanine aminotransferease [ALT], aspartate aminotransferase [AST], alkaline phosphastase [ALP] and gamma-glutamyl transferase [GGT] which represent hepatotoxicity or bile duct injury."}, "[3]": {"test": "Storage stability of anhydrous solid crystalline form (XRPD)", "assay_type": "physicochemical", "settings": "Form B, ambient conditions for three months", "from_the_text": "After storage of this solid crystalline form at ambient conditions for three months, the sample was subjected to XRPD analysis again."}, "CYP2B6": {"molecular_target": "CYP2B6 (Homo sapiens, UniProt P20813)", "sequence (P20813 whole entry)": "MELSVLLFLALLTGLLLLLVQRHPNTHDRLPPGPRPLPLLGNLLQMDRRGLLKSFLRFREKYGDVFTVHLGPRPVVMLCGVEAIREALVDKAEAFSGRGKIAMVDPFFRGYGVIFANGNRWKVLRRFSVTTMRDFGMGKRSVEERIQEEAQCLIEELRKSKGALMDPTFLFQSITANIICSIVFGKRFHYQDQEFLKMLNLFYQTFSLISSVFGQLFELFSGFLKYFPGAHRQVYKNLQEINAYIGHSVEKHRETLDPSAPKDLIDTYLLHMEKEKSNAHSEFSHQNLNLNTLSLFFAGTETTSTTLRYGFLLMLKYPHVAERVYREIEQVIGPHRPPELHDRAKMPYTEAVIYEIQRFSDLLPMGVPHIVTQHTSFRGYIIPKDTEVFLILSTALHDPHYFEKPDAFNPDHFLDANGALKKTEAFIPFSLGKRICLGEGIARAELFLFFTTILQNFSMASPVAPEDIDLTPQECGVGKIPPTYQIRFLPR", "test": "in vitro", "settings": "probe Buproprion"}, "[4]": {"settings": "30 mg/kg orally once a day for 4 days"}},
  "data": [
    {"smiles": "C[C@@H](C(=O)Nc1ccnc(-c2cnc(N3CCC[C@H]3C(F)(F)F)nc2)n1)n1cnc2c1c(=O)n(C)c(=O)n2C", "note": "[Compound 2, (S)-2-(1,3-dimethyl-2,6-dioxo-2,3-dihydro-1H-purin-7(6H)-yl)-N-(2′-((S)-2-(trifluoromethyl)pyrrolidin-1-yl)-[2,5′-bipyrimidin]-4-yl)propanamide]", "values": [
      {"measurement": "solubility at 30 h", "setting": "[1]", "value": 1050, "unit": "µg/mL"},
      {"measurement": "IC50", "setting": "dogTRPA1", "value": "23.5 ± 6.4", "unit": "nM"},
      {"measurement": "peak early airway responses", "setting": "[2]; [4]", "value": "did not affect the peak early airway responses"},
      {"measurement": "protection of late airway responses", "setting": "[2]; [4]", "value": 85, "unit": "%"},
      {"measurement": "airway hyperresponsiveness (PC400)", "setting": "[2]; 30 mg/kg orally, carbachol challenge 24 hours after final dose", "value": "reduced the airway hyperresponsiveness to levels similar to those observed in sheep that were not challenged with Ascaris suum"},
      {"measurement": "average LAR (increase in pulmonary resistance)", "setting": "[2]; treatment trial, 30 mg/kg orally once a day for 4 days", "value": "19±2.3", "unit": "%"},
      {"measurement": "ALP d28", "setting": "cynomolgus monkeys; 10 mg/kg/day nasogastric", "value": 744.0, "unit": "U/L"},
      {"measurement": "ALT d28", "setting": "cynomolgus monkeys; 10 mg/kg/day nasogastric", "value": 87.0, "unit": "U/L"},
      {"measurement": "AST d28", "setting": "cynomolgus monkeys; 10 mg/kg/day nasogastric", "value": 126.0, "unit": "U/L"},
      {"measurement": "GGT d28", "setting": "cynomolgus monkeys; 10 mg/kg/day nasogastric", "value": 64.0, "unit": "U/L"},
      {"measurement": "ALP d28", "setting": "cynomolgus monkeys; 30 mg/kg/day nasogastric", "value": 461.0, "unit": "U/L"},
      {"measurement": "ALT d28", "setting": "cynomolgus monkeys; 30 mg/kg/day nasogastric", "value": 50.0, "unit": "U/L"},
      {"measurement": "AST d28", "setting": "cynomolgus monkeys; 30 mg/kg/day nasogastric", "value": 72.0, "unit": "U/L"},
      {"measurement": "GGT d28", "setting": "cynomolgus monkeys; 30 mg/kg/day nasogastric", "value": 49.0, "unit": "U/L"},
      {"measurement": "ALP d28", "setting": "cynomolgus monkeys; 100 mg/kg/day nasogastric", "value": 532.0, "unit": "U/L"},
      {"measurement": "ALT d28", "setting": "cynomolgus monkeys; 100 mg/kg/day nasogastric", "value": 61.0, "unit": "U/L"},
      {"measurement": "AST d28", "setting": "cynomolgus monkeys; 100 mg/kg/day nasogastric", "value": 70.0, "unit": "U/L"},
      {"measurement": "GGT d28", "setting": "cynomolgus monkeys; 100 mg/kg/day nasogastric", "value": 53.7, "unit": "U/L"},
      {"measurement": "ALP d28", "setting": "cynomolgus monkeys; 300 mg/kg/day nasogastric", "value": 441.0, "unit": "U/L"},
      {"measurement": "ALT d28", "setting": "cynomolgus monkeys; 300 mg/kg/day nasogastric", "value": 67.0, "unit": "U/L"},
      {"measurement": "AST d28", "setting": "cynomolgus monkeys; 300 mg/kg/day nasogastric", "value": 134.0, "unit": "U/L"},
      {"measurement": "GGT d28", "setting": "cynomolgus monkeys; 300 mg/kg/day nasogastric", "value": 54.8, "unit": "U/L"},
      {"measurement": "serum biomarkers of hepatotoxicity (ALT, AST, ALP, GGT)", "setting": "cynomolgus monkeys; cynomolgus monkeys, once daily for 28 or 29 days", "value": "did not elevate the serum biomarkers up to and including a dose of 300 mg/kg"},
      {"measurement": "XRPD pattern after storage", "setting": "[3]", "value": "matches the original indexed pattern"},
      {"measurement": "inhibition at 10 µM", "setting": "CYP2B6", "value": 15.1, "unit": "%"}
    ]}
  ]
}
